Assay results published in ChEMBL document CHEMBL3046323, “Photosynthetic Electron Transport Inhibitory and Herbicidal Activities of 2-(N-Acylbenzylamino)-4-methyl-6-fluoroalkyl-1, 3, 5-triazine Derivatives” (J Pestic Sci, 2001).

What was measured:
[1] = tested on: Chenopodium album; experiment: Herbicidal activity against Chenopodium album at 4 kg/ha treated as soil application at pre-emergence after 3 weeks; format: functional
[2] = tested on: Echinochloa crus-galli var. crus-galli; experiment: Herbicidal activity against Echinochloa crus-galli var. crus-galli at 4 kg/ha treated as soil application at pre-emergence after 3 weeks; format: functional
[3] = tested on: Amaranthus blitum subsp. oleraceus; experiment: Herbicidal activity against Amaranthus blitum subsp. Oleraceus at 4 kg/ha treated as soil application at pre-emergence after 3 weeks; format: functional
[4] = tested on: Digitaria ciliaris; experiment: Herbicidal activity against Digitaria ciliaris at 4 kg/ha treated as soil application at pre-emergence after 3 weeks; format: functional
[5] = Inhibition of photosynthetic electron transport in Spinacia oleracea leaf thylakoids assessed as oxygen formation
[6] = tested on: Pontederia vaginalis; experiment: Herbicidal activity against Monochoria vaginalis at 4 kg/ha treated as foliar application at post-emergence after 3 weeks; format: functional
[7] = tested on: Echinochloa crus-galli var. crus-galli; experiment: Herbicidal activity against Echinochloa crus-galli var. crus-galli at 4 kg/ha treated as paddy application at pre-emergence after 3 weeks; format: functional
[8] = tested on: Chenopodium album; experiment: Herbicidal activity against Chenopodium album at 4 kg/ha treated as paddy application at pre-emergence after 3 weeks; format: functional
[9] = tested on: Echinochloa oryzicola; experiment: Herbicidal activity against Echinochloa oryzicola at 4 kg/ha treated as foliar application at post-emergence after 3 weeks; format: functional
[10] = tested on: Digitaria ciliaris; experiment: Herbicidal activity against Digitaria ciliaris at 4 kg/ha treated as paddy application at pre-emergence after 3 weeks; format: functional
[11] = tested on: Schoenoplectiella juncoides; experiment: Herbicidal activity against Schoenoplectiella juncoides var. Hotarui Ohwi at 4 kg/ha treated as foliar application at post-emergence after 3 weeks; format: functional
[12] = tested on: Persicaria longiseta; experiment: Herbicidal activity against Persicaria longiseta at 4 kg/ha treated as paddy application at pre-emergence after 3 weeks; format: functional
[13] = tested on: Persicaria longiseta; experiment: Herbicidal activity against Persicaria longiseta at 4 kg/ha treated as soil application at pre-emergence after 3 weeks; format: functional
[14] = tested on: Rotala indica; experiment: Herbicidal activity against Rotala indica at 4 kg/ha treated as foliar application at post-emergence after 3 weeks; format: functional

SMILES	Activity [1] [%]	Activity [2] [%]	Activity [3] [%]	Activity [4] [%]	pI50 [5]	Activity [6] [%]	Activity [7] [%]	Activity [8] [%]	Activity [9] [%]	Activity [10] [%]	Activity [11] [%]	Activity [12] [%]	Activity [13] [%]	Activity [14] [%]
CCNc1nc(Cl)nc(NCC)n1 [SIMAZINE]	91	26	91	51	6.28									
Cc1nc(N(C=O)Cc2ccccc2)nc(C(F)(F)F)n1	100	76	76	76		26	76	100	0	76	0	100	91	
Cc1nc(N(C=O)Cc2ccc(Cl)cc2)nc(C(F)(F)F)n1	100	100	91	91		100	100	100	91	91	91	100	100	100
Cc1nc(NCc2ccc(Cl)cc2)nc(C(F)F)n1					6.62									
Cc1nc(C(F)F)nc(N(C=O)Cc2ccc(Cl)cc2)n1	100	100	100	91		100	76	100	91	76	76	100	100	100
Cc1nc(N(C=O)Cc2ccc(Cl)cc2)nc(C(F)(F)C(F)(F)F)n1	91	100	100	100		100	100	100	76	76	100	100	100	100
CCCC(=O)N(Cc1ccccc1)c1nc(C)nc(C(F)(F)F)n1	76	51	76	51		51	100	100	0	51	0	1	51	26
CC(=O)N(Cc1ccccc1)c1nc(C)nc(C(F)(F)F)n1	100	0		1		100	76	100	100	0	100	51		
Cc1nc(NCc2ccccc2)nc(C(F)(F)F)n1	100	76		91		91	100	76	76	91	91	76		76
Cc1nc(N(Cc2ccccc2)C(=O)C(C)(C)C)nc(C(F)(F)F)n1		26		51										
CCNc1nc(Cl)nc(NC(C)C)n1 [ATRAZINE]						100		91	91		76	91		
CCCc1nc(C)nc(N(C=O)Cc2ccc(Cl)cc2)n1	91	51	76	91		76	100	100	0	1	1	100	100	100
Cc1nc(NCc2ccc(Cl)cc2)nc(C(F)(F)F)n1	100	100		100	6.97	100	100	91	91	100	100	91		91
CCC(=O)N(Cc1ccccc1)c1nc(C)nc(C(F)(F)F)n1	91	76	91	91		26	76	100	0	76	0	100	91	
